The record followed here is US5633345A, “Cyclic peptides” (priority 1992, dated 1997).

Assay in all cases: Antifungal activity, MIC by agar dilution method
(In general: In agar dilution, organisms are placed on agar that contains the substance at set levels.)

For one experiment, the system named is C. albicans TIMM 0171. Type of experiment: cell-based, Candida albicans. The following applies: for MIC: C. albicans TIMM 0171, Sabouraud-dextrose agar medium, 30° C. for 2 days. On the procedure:
(§1) The minimum inhibitory concentration (MIC) values were determined after incubation at 30° C. for 2 days.

The next experiment concerns C. grabrata TIMM 1062. It is filed as cell-based. The following applies: Sabouraud-dextrose agar medium, 30° C. for 2 days. As to the method:
as §1

Another experiment deals with C. kefyr TIMM 0301. Type of experiment: cell-based. The note with it: Sabouraud-dextrose agar medium, 30° C. for 2 days. As to the method:
as §1

Experiment [1] has as its system Candida albicans TIMM 0136. Type of experiment: cell-based. The following applies: Sabouraud-dextrose agar medium, 30° C. for 2 days. On the procedure: as §1
The subject of experiment [2] is Cryptococcus neoformans TIMM 0354. Type of experiment: cell-based. The note with it: Sabouraud-dextrose agar medium, 30° C. for 2 days. On the procedure:
as §1

What is called MIC is the lowest concentration that inhibits growth of the organism. Higher therefore signals a less susceptible organism. Turning to “cyclo(L-GluOR-L-MeVal-L-Leu-L-βHOMeVal-D-Hmp-L-MeVal-L-Phe-L-MePhe-L- Pro) (R: n-octyl) [Compound 32]”, the minimal inhibitory concentration (MIC) against C. albicans TIMM 0171 was 0.78 µg/mL; in the experiment with C. grabrata TIMM 1062, 1.56 µg/mL; with C. kefyr TIMM 0301 it was 6.25 µg/mL; in experiment [1], 0.78 µg/mL; in experiment [2], over 25 µg/mL.

As for “cyclo(L-GluOR-L-MeVal-L-Leu-L-βHOMeVal-D-Hmp-L-MeVal-L-Phe-L-MePhe-L- Pro) (R: cis-3-hexenyl) [Compound 34]”, the MIC against C. albicans TIMM 0171 is 0.10 µg/mL; against C. grabrata TIMM 1062, 0.39 µg/mL; in the experiment on C. kefyr TIMM 0301, 0.78 µg/mL; in experiment [1] it was 0.20 µg/mL; in experiment [2] it was over 25 µg/mL.

“cyclo(L-GluOR-L-MeVal-L-Leu-L-βHOMeVal-D-Hmp-L-MeVal-L-Phe-L-MePhe-L- Pro) (R: n-hexyl) [Compound 31]”: the MIC against C. albicans TIMM 0171 was 0.20 µg/mL; against C. grabrata TIMM 1062 it was 1.56 µg/mL; in the experiment with C. kefyr TIMM 0301, 3.12 µg/mL; in experiment [1], 0.39 µg/mL; in experiment [2] it was over 25 µg/mL.

Regarding “cyclo(L-GluOR-L-MeVal-L-Leu-L-βHOMeVal-D-Hmp-L-MeVal-L-Phe-L-MePhe-L- Pro) (R: trans-3-hexenyl) [Compound 35]”, the minimal inhibitory concentration (MIC) with C. albicans TIMM 0171 is 0.78 µg/mL; in the experiment with C. grabrata TIMM 1062, 0.39 µg/mL; in the experiment on C. kefyr TIMM 0301 it was 1.56 µg/mL; in experiment [1], 0.20 µg/mL; in experiment [2] it was over 25 µg/mL.

“cyclo(L-RONva-L-MeVal-L-Leu-L-βHOMeVal-D-Hmp-L-MeVal-L-Phe-L-MePhe-L- Pro) (R: n-hexanoyl) [Compound 37]”: the MIC in the experiment with C. albicans TIMM 0171 came out at 0.10 µg/mL; with C. grabrata TIMM 1062 it was 0.39 µg/mL; in the experiment on C. kefyr TIMM 0301, 0.78 µg/mL; in experiment [1] it was 0.10 µg/mL; in experiment [2], 12.5 µg/mL.

“cyclo(L-aIle-L-ROMeNva-L-Leu-L-βHOMeVal-D-Hmp-L-MeVal-L-Phe-L-MePhe-L-Pro) (R: Bzl) [Compound 27]”: the MIC against C. albicans TIMM 0171 is 0.78 µg/mL; against C. grabrata TIMM 1062, over 25 µg/mL; against C. kefyr TIMM 0301 it was 3.12 µg/mL; in experiment [1] it was 0.78 µg/mL; in experiment [2], over 25 µg/mL.

On to “cyclo(L-GluOR-L-MeVal-L-Leu-L-βHOMeVal-D-Hmp-L-MeVal-L-Phe-L-MePhe-L- Pro) (R: n-decyl) [Compound 33]”, for which the MIC is 1.56 µg/mL against C. albicans TIMM 0171; over 25 µg/mL with C. grabrata TIMM 1062; over 25 µg/mL against C. kefyr TIMM 0301; 1.56 µg/mL in experiment [1]; over 25 µg/mL in experiment [2].

For the substance “cyclo(L-aIle-L-MeVal-L-GluOR-L-βHOMeVal-D-Hmp-L-MeVal-L-Phe-L-MePhe-L-Pro) (R: cHex) [Compound 38]”, the MIC in the experiment on C. albicans TIMM 0171 is 0.013 µg/mL; with C. grabrata TIMM 1062 it was 1.56 µg/mL; in the experiment on C. kefyr TIMM 0301, 3.12 µg/mL; in experiment [1], 0.20 µg/mL; in experiment [2], over 25 µg/mL. For the same substance, in the experiment with C. albicans TIMM 0171 (comparison in words), the “activity against Candida albicans TIMM 0171 compared with compound 1” value is “higher activity against Candida albicans TIMM 0171 than compound 1”.
